Data from PubChem BioAssay AID1963829 (Molecular Pharmacology Branch, DTP, NCI, 2024).

Tested on: 935938-334-R-J1-PDC complex spheroid viability
Assay: Anticancer human tumor 935938-334-R-J1-PDC patient-derived small intestine adenocarcinoma cell line growth inhibition [POLQ]
Conditions: for IC50: curve of first compound; for viability, T/C: stronger effect = lower value
Procedure, shortened: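 Complex spheroid viability model combining PDC tumour cells with endothelial (HUVEC) and MSC stromal cells. Novobiocin, ART-558 or RP6685 were tested singly and in combination with standard and investigational anticancer drugs. Each was titrated in half-log steps from near clinical Cmax, or from 10 microM where Cmax was unknown.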

[1] = second compound 0.0316 µM, first compound 0.0316 µM
[2] = second compound 0.0316 µM, first compound 0.1 µM
[3] = second compound 0.0316 µM, first compound 0.316 µM
[4] = second compound 0.0316 µM, first compound 1 µM
[5] = second compound 0.0316 µM, first compound 3.16 µM
[6] = second compound 0.0316 µM, first compound 10 µM
[7] = second compound 0.1 µM, first compound 0.0316 µM
[8] = second compound 0.1 µM, first compound 0.1 µM
[9] = second compound 0.1 µM, first compound 0.316 µM
[10] = second compound 0.1 µM, first compound 1 µM
[11] = second compound 0.1 µM, first compound 3.16 µM
[12] = second compound 0.1 µM, first compound 10 µM
[13] = second compound 0.316 µM, first compound 0.0316 µM
[14] = second compound 0.316 µM, first compound 0.1 µM
[15] = second compound 0.316 µM, first compound 0.316 µM
[16] = second compound 0.316 µM, first compound 1 µM
[17] = second compound 0.316 µM, first compound 3.16 µM
[18] = second compound 0.316 µM, first compound 10 µM
[19] = second compound 1 µM, first compound 0.0316 µM
[20] = second compound 1 µM, first compound 0.1 µM
[21] = second compound 1 µM, first compound 0.316 µM
[22] = second compound 1 µM, first compound 1 µM
[23] = second compound 1 µM, first compound 3.16 µM
[24] = second compound 1 µM, first compound 10 µM
[25] = second compound 3.16 µM, first compound 0.0316 µM
[26] = second compound 3.16 µM, first compound 0.1 µM
[27] = second compound 3.16 µM, first compound 0.316 µM
[28] = second compound 3.16 µM, first compound 1 µM
[29] = second compound 3.16 µM, first compound 3.16 µM
[30] = second compound 3.16 µM, first compound 10 µM
[31] = second compound 10 µM, first compound 0.0316 µM
[32] = second compound 10 µM, first compound 0.1 µM
[33] = second compound 10 µM, first compound 0.316 µM
[34] = second compound 10 µM, first compound 1 µM
[35] = second compound 10 µM, first compound 3.16 µM
[36] = second compound 10 µM, first compound 10 µM
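Note: spheroids exposed to drugs for seven days before viability read.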
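Throughout, for viability, T/C: 100% = DMSO vehicle control wells.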

`COc1cc2cc(C(=O)CCC(=O)O)sc2cc1OC` + Cc1cccc(N(C)C(=O)C2C(O)CCN2c2nc(C)cc(C(F)(F)F)c2C#N)c1 was tested, and the IC50 (second compound 0.0316 µM) was over 10 µM, the IC50 (second compound 0.1 µM) was over 10 µM and the IC50 (second compound 0.316 µM) was over 10 µM. For the same molecule, the IC50 (second compound 1 µM) was over 10 µM, the IC50 (second compound 3.16 µM) was over 10 µM and the IC50 (second compound 10 µM) was over 10 µM. It also gave a viability, T/C [1] of 116%, a viability, T/C [2] of 84.3% and a viability, T/C [3] of 88.5%. The viability, T/C [4] was 83.9%, the viability, T/C [5] was 85.1% and the viability, T/C [6] was 80.8%. It also gave a viability, T/C [7] of 100%, a viability, T/C [8] of 85.6% and a viability, T/C [9] of 92.4%. The viability, T/C [10] was 95.7%, the viability, T/C [11] was 62.9% and the viability, T/C [12] was 81.9%. It also gave a viability, T/C [13] of 79.7%, a viability, T/C [14] of 82.5% and a viability, T/C [15] of 68.3%. The viability, T/C [16] was 88.9%, the viability, T/C [17] was 84.8% and the viability, T/C [18] was 93.8%. For the same molecule, the viability, T/C [19] was 91.7%, the viability, T/C [20] was 96.5% and the viability, T/C [21] was 103%. For the same molecule, the viability, T/C [22] was 81.1%, the viability, T/C [23] was 74% and the viability, T/C [24] was 83.4%. It also gave a viability, T/C [25] of 82.1%, a viability, T/C [26] of 95.6% and a viability, T/C [27] of 98.5%. The viability, T/C [28] was 95.9%, the viability, T/C [29] was 98.2% and the viability, T/C [30] was 95.1%. The viability, T/C [31] was 135%, the viability, T/C [32] was 75.6% and the viability, T/C [33] was 96.2%. It also gave a viability, T/C [34] of 112%, a viability, T/C [35] of 114% and a viability, T/C [36] of 105%.
`Nc1ccn(C2OC(CO)C(O)C2(F)F)c(=O)n1` (stereo unspecified) + COC1C(OC(N)=O)C(O)C(Oc2ccc3c(O)c(NC(=O)c4ccc(O)c(CC=C(C)C)c4)c(=O)oc3c2C)OC1(C)C showed an IC50 (second compound 0.0316 µM) of under 0.0316 µM, an IC50 (second compound 0.1 µM) of under 0.0316 µM and an IC50 (second compound 0.316 µM) of under 0.0316 µM. For the same molecule, the IC50 (second compound 1 µM) was under 0.0316 µM, the IC50 (second compound 3.16 µM) was under 0.0316 µM and the IC50 (second compound 10 µM) was under 0.0316 µM. The viability, T/C [1] was 25.5%, the viability, T/C [2] was 22.1% and the viability, T/C [3] was 18.8%. For the same molecule, the viability, T/C [4] was 15%, the viability, T/C [5] was 14.9% and the viability, T/C [6] was 14.1%. For the same molecule, the viability, T/C [7] was 30.7%, the viability, T/C [8] was 18.8% and the viability, T/C [9] was 17.8%. For the same molecule, the viability, T/C [10] was 16.9%, the viability, T/C [11] was 16.9% and the viability, T/C [12] was 14.5%. The viability, T/C [13] was 32.2%, the viability, T/C [14] was 22.6% and the viability, T/C [15] was 17.7%. For the same molecule, the viability, T/C [16] was 17.7%, the viability, T/C [17] was 16.3% and the viability, T/C [18] was 14.6%. The viability, T/C [19] was 28.5%, the viability, T/C [20] was 23.4% and the viability, T/C [21] was 20.2%. It also gave a viability, T/C [22] of 13.6%, a viability, T/C [23] of 18.1% and a viability, T/C [24] of 16.5%. For the same molecule, the viability, T/C [25] was 26.1%, the viability, T/C [26] was 25.7% and the viability, T/C [27] was 21.7%. It also gave a viability, T/C [28] of 16.4%, a viability, T/C [29] of 16.7% and a viability, T/C [30] of 14.9%. The viability, T/C [31] was 28.8%, the viability, T/C [32] was 23.6% and the viability, T/C [33] was 18.6%. It also gave a viability, T/C [34] of 14.4%, a viability, T/C [35] of 16.8% and a viability, T/C [36] of 17.9%.
Molecule `C=CC(=O)N1CCN(c2nc(=O)n(-c3c(C)ccnc3C(C)C)c3nc(-c4c(O)cccc4F)c(F)cc23)C(C)C1` (stereo unspecified) + Nc1ccc(C#CCN(C(=O)Cc2ncc(C(F)(F)F)cc2C(F)(F)F)c2ccc(F)cc2)nn1 has an IC50 (second compound 0.0316 µM) of over 10 µM, an IC50 (second compound 0.1 µM) of over 10 µM and an IC50 (second compound 0.316 µM) of over 10 µM. For the same molecule, the IC50 (second compound 1 µM) was over 10 µM, the IC50 (second compound 3.16 µM) was over 10 µM and the IC50 (second compound 10 µM) was over 10 µM. The viability, T/C [1] was 99.1%, the viability, T/C [2] was 111% and the viability, T/C [3] was 87.1%. For the same molecule, the viability, T/C [4] was 128%, the viability, T/C [5] was 125% and the viability, T/C [6] was 112%. It also gave a viability, T/C [7] of 90.7%, a viability, T/C [8] of 99.5% and a viability, T/C [9] of 91.2%. For the same molecule, the viability, T/C [10] was 138%, the viability, T/C [11] was 122% and the viability, T/C [12] was 107%. For the same molecule, the viability, T/C [13] was 106%, the viability, T/C [14] was 106% and the viability, T/C [15] was 87.3%. It also gave a viability, T/C [16] of 94.8%, a viability, T/C [17] of 128% and a viability, T/C [18] of 87.4%. For the same molecule, the viability, T/C [19] was 91.4%, the viability, T/C [20] was 96.9% and the viability, T/C [21] was 98.4%. It also gave a viability, T/C [22] of 134%, a viability, T/C [23] of 115% and a viability, T/C [24] of 138%. It also gave a viability, T/C [25] of 85.1%, a viability, T/C [26] of 89.9% and a viability, T/C [27] of 114%. The viability, T/C [28] was 95.9%, the viability, T/C [29] was 183% and the viability, T/C [30] was 113%. It also gave a viability, T/C [31] of 88.2%, a viability, T/C [32] of 95.8% and a viability, T/C [33] of 116%. For the same molecule, the viability, T/C [34] was 89.3%, the viability, T/C [35] was 119% and the viability, T/C [36] was 138%.
